From patent publication US9085576B2 (AMGEN INC., priority 2013, dated 2015)

Columns and labels:
[1] = target: Beta Secretase enzyme (BACE) (Homo sapiens (Human), UniProt P56817); assay: In vitro enzymatic BACE FRET assay; type: biochemical; conditions: read-out: BACE1 Enzyme assay IC50
BACE = BACE (Homo sapiens (Human), UniProt P56817); assay: In vitro BACE cell-based assay (Aβ40 in conditioned medium, sandwich ELISA)
Cathepsin D (Cat D) = Cathepsin D (Cat D) (Homo sapiens (Human), UniProt P07339); assay: In vitro enzymatic Cathepsin D (Cat D) FRET assay; type: biochemical; conditions: read-out: CatD IC50
Chain of Cathepsin D (Cat D) (P07339 65-412, species assumed): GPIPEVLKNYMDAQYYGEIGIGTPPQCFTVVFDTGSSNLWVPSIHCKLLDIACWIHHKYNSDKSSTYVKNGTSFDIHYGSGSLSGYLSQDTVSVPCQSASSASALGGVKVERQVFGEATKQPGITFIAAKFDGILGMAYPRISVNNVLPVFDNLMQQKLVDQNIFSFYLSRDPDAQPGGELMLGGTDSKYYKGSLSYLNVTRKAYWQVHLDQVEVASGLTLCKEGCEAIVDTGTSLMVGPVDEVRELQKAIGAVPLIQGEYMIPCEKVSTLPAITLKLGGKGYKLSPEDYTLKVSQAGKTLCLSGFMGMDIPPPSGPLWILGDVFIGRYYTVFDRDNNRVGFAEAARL
Experimental: In Vitro Enzymatic Cathepsin D (Cat D) FRET (Fluorescence Resonance Energy Transfer) Assay
Recombinant Cat D was expressed in CHO cells. The assay buffer for CathepsinD is 0.05 M citrate pH 3.5, 10% DMSO final, 5 mM CHAPS. […] The assays are effectively started by the addition of different FRET substrates (20 nM for Cat D) and the combination is incubated for one hour. The FRET assay is terminated with by addition of Tris buffer, which raises the pH to neutrality, and the fluorescence is determined. […] Proteolytic cleavage of the FRET substrate releases quenching of fluorescence (Cat D excitation 500 nm and emission 580 nm).

Chain of Beta Secretase enzyme (BACE) (P56817 46-501): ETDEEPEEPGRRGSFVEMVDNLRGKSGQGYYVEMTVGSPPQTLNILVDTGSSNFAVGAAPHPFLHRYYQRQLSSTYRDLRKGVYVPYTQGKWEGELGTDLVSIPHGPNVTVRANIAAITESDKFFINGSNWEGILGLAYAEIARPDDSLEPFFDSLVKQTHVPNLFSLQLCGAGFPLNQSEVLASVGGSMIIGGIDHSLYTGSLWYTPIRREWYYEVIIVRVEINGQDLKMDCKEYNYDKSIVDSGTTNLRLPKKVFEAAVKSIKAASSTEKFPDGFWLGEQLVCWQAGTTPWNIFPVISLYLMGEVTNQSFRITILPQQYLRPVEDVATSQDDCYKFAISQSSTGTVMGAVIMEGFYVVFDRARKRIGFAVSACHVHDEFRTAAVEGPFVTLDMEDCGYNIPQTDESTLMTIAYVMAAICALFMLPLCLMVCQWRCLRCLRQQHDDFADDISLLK
Chain of BACE (P56817 46-501, species assumed): as the sequence (P56817 46-501) above

| SMILES | IC50 [1] | IC50 (BACE) | IC50 (Cathepsin D (Cat D)) |
| --- | --- | --- | --- |
| COc1cc(C#N)cnc1C(=O)Nc1ccc(Cl)c([C@@]2(CF)N=C(N)O[C@@H]3C[C@@H]32)c1 [Example 397, N-(3-((1R,5S,6R)-3-amino-5-(fluoromethyl)-2-oxa-4-azabicyclo[4.1.0]hept-3-en-5-yl)-4-chlorophenyl)-5-cyano-3-methoxypicolinamide] | 0.081 µM | 0.009 µM | > 400 µM |
| Cc1cc(C#N)cnc1C(=O)Nc1cc(Cl)c(F)c([C@@]2(CF)N=C(N)O[C@@H]3C[C@@H]32)c1 [Example 91, N-(3-((1R,5S,6R)-3-amino-5-(fluoromethyl)-2-oxa-4-azabicyclo[4.1.0]hept-3-en-5-yl)-5-chloro-4-fluorophenyl)-5-cyano-3-methylpicolinamide] | 0.0506 µM | 0.0073 µM | 260 µM |
| Cc1cnc(C(=O)Nc2ccc(F)c([C@@]3(C(F)F)N=C(N)O[C@@H]4C[C@@H]43)c2)cn1 [Example 266, N-(3-((1R,5S,6R)-3-amino-5-(difluoromethyl)-2-oxa-4-azabicyclo[4.1.0]hept-3-en-5-yl)-4-fluorophenyl)-5-methylpyrazine-2-carboxamide] | 0.817 µM | 0.776 µM | 1160 µM |
| NC1=N[C@@](c2cc(NC(=O)CC(F)(F)F)ccc2F)(C(F)F)[C@H]2C[C@H]2O1 [Example 251, N-(3-((1R,5S,6R)-3-amino-5-(difluoromethyl)-2-oxa-4-azabicyclo[4.1.0]hept-3-en-5-yl)-4-fluorophenyl)-3,3,3-trifluoropropanamide] | 4.7 µM | 2 µM | 190 µM |
| COc1cnc(C(=O)Nc2ccc(Cl)c([C@]3(CF)N=C(N)O[C@H]4C[C@H]43)c2)cn1 [Example 273] | 36.3 µM | 2.66 µM | 1970 µM |
| Cc1nc(Cl)cnc1C(=O)Nc1ccc(F)c([C@@]2(C(F)F)N=C(N)O[C@@H]3C[C@@H]32)c1 (stereo in doubt) [Example 53, N-(3-((1R,5S,6R)-3-amino-5-(difluoromethyl)-2-oxa-4-azabicyclo[4.1.0]hept-3-en-5-yl)-4-fluorophenyl)-5-chloro-3-methylpyrazine-2-carboxamide] | 0.0616 µM | 2.38 µM | 577 µM |
| C#CCOc1cnc(C(=O)Nc2ccc(Cl)c([C@]3(CF)N=C(N)O[C@H]4C[C@H]43)c2)cn1 [Example 280, N-(3-((1S,5R,6S)-3-amino-5-(fluoromethyl)-2-oxa-4-azabicyclo[4.1.0]hept-3-en-5-yl)-4-chlorophenyl)-5-(prop-2-yn-1-yloxy)pyrazine-2-carboxamide] | 4.78 µM | 2.89 µM | 1470 µM |
| NC1=N[C@@](c2cc(NC(=O)c3cnc(OCc4cscn4)cn3)ccc2F)(C(F)F)[C@H]2C[C@H]2O1 [Example 169, N-(3-((1R,5S,6R)-3-amino-5-(difluoromethyl)-2-oxa-4-azabicyclo[4.1.0]hept-3-en-5-yl)-4-fluorophenyl)-5-(thiazol-4-ylmethoxy)pyrazine-2-carboxamide] | 0.0366 µM | 0.0418 µM | 582 µM |
| Cc1cc(OC(F)F)cnc1C(=O)Nc1cc(F)c(Cl)c([C@]2(CF)N=C(N)O[C@H]3C[C@H]32)c1 [Example 157, N-(3-((1S,5R,6S)-3-amino-5-(fluoromethyl)-2-oxa-4-azabicyclo[4.1.0]hept-3-en-5-yl)-4-chloro-5-fluorophenyl)-5-(difluoromethoxy)-3-methylpicolinamide] | 28.3 µM | > 15.6 µM | 396 µM |
| C#CCOc1cnc(C(=O)Nc2ccc(F)c([C@@]3(CF)N=C(N)O[C@@H]4C[C@@H]43)c2)cn1 [Example 197, N-(3-((1R,5S,6R)-3-amino-5-(fluoromethyl)-2-oxa-4-azabicyclo[4.1.0]hept-3-en-5-yl)-4-fluorophenyl)-5-(prop-2-yn-1-yloxy)pyrazine-2-carboxamide] | 0.0066 µM | 0.0023 µM | 260 µM |
| Cc1c(C(=O)Nc2ccc(F)c([C@]3(C(F)F)N=C(N)O[C@H]4C[C@H]43)c2)nc2ccc(Cl)cn12 (racemic) [Example 61, N-(3-([1(R,S),5(S,R),6(R,S)]-3-amino-5-(difluoromethyl)-2-oxa-4-azabicyclo[4.1.0]hept-3-en-5-yl)-4-fluorophenyl)-6-chloro-3-methylimidazo[1,2-a]pyridine-2-carboxamide] | 0.167 µM | 0.0701 µM | 1780 µM |
| NC1=NC(CF)(c2cc(NC(=O)c3nn(C(F)F)cc3Cl)cc(F)c2F)[C@@H]2C[C@@H]2O1 (stereo in doubt) [Example 47, N-(3-((1S,5S,6S)-3-amino-5-(fluoromethyl)-2-oxa-4-azabicyclo[4.1.0]hept-3-en-5-yl)-4,5-difluorophenyl)-4-chloro-1-(difluoromethyl)-1H-pyrazole-3-carboxamide] | 21.2 µM | 1.76 µM | 968 µM |
| COc1cnc(C(=O)Nc2cc(C)c(F)c([C@@]3(C(F)F)N=C(N)O[C@@H]4C[C@@H]43)c2)c(C)c1 [Example 305, N-(3-((1R,5S,6R)-3-amino-5-(difluoromethyl)-2-oxa-4-azabicyclo[4.1.0]hept-3-en-5-yl)-4-fluoro-5-methylphenyl)-5-methoxy-3-methylpicolinamide] | 0.118 µM | 0.0696 µM | 288 µM |
| CC(C)Oc1cnc2c(Nc3cc(Cl)c(F)c([C@@]4(CF)N=C(N)O[C@@H]5C[C@@H]54)c3)nccc2n1 [Example 357, (1R,5S,6R)-5-(3-chloro-2-fluoro-5-((2-isopropoxypyrido[3,4-b]pyrazin-5-yl)amino)phenyl)-5-(fluoromethyl)-2-oxa-4-azabicyclo[4.1.0]hept-3-en-3-amine] | 0.375 µM | 0.918 µM | 323 µM |
| C=CCOc1cnc(C(=O)Nc2ccc(F)c([C@@]3(C(F)F)N=C(N)O[C@@H]4C[C@@H]43)c2)cn1 [Example 414, 5-(allyloxy)-N-(3-((1R,5S,6R)-3-amino-5-(difluoromethyl)-2-oxa-4-azabicyclo[4.1.0]hept-3-en-5-yl)-4-fluorophenyl)pyrazine-2-carboxamide] | 0.048 µM | 0.146 µM | 924 µM |
| NC1=N[C@@](CF)(c2cc(NC(=O)c3ccc(Cl)cn3)cc(F)c2F)[C@@H]2C[C@@H]2O1 [Example 32, N-(3-((1 S,5R,6S)-3-amino-5-(fluoromethyl)-2-oxa-4-azabicyclo[4.1.0]hept-3-en-5-yl)-4,5-difluorophenyl)-5-chloropicolinamide] | 1.22 µM | 0.232 µM | 1020 µM |
| NC1=N[C@@](c2cc(NC(=O)c3csc(Cl)c3)ccc2F)(C(F)F)[C@H]2C[C@H]2O1 [Example 181, N-(3-((1R,5S,6R)-3-amino-5-(difluoromethyl)-2-oxa-4-azabicyclo[4.1.0]hept-3-en-5-yl)-4-fluorophenyl)-5-chlorothiophene-3-carboxamide] | 1.4 µM | 1.14 µM | 580 µM |
| NC1=N[C@@](c2cc(NC(=O)c3cnc(OCc4cnco4)cn3)ccc2F)(C(F)F)[C@H]2C[C@H]2O1 [Example 171, N-(3-((1R,5S,6R)-3-amino-5-(difluoromethyl)-2-oxa-4-azabicyclo[4.1.0]hept-3-en-5-yl)-4-fluorophenyl)-5-(oxazol-5-ylmethoxy)pyrazine-2-carboxamide] | 0.0811 µM | 0.323 µM | 846 µM |
| CC(C)c1cccnc1C(=O)Nc1ccc(F)c([C@@]2(C(F)F)N=C(N)O[C@@H]3C[C@@H]32)c1 [Example 288, N-(3-((1R,5S,6R)-3-amino-5-(difluoromethyl)-2-oxa-4-azabicyclo[4.1.0]hept-3-en-5-yl)-4-fluorophenyl)-3-isopropylpicolinamide] | 3.35 µM | 2.22 µM | 1260 µM |
| COCC(=O)Nc1ccc(F)c([C@@]2(C(F)F)N=C(N)O[C@@H]3C[C@@H]32)c1 [Example 240, N-(3-((1R,5S,6R)-3-amino-5-(difluoromethyl)-2-oxa-4-azabicyclo[4.1.0]hept-3-en-5-yl)-4-fluorophenyl)-2-methoxyacetamide] | 0.821 µM | 0.712 µM | 48.1 µM |
| NC1=N[C@](CF)(c2cc(NC(=O)c3ccc(Br)cn3)ccc2Cl)[C@H]2C[C@H]2O1 [Example 274, N-(3-((1R,5S,6R)-3-amino-5-(fluoromethyl)-2-oxa-4-azabicyclo[4.1.0]hept-3-en-5-yl)-4-chlorophenyl)-5-bromopicolinamide] | 0.0322 µM | 0.012 µM | 538 µM |
| COc1cnc(C(=O)Nc2cnc(F)c([C@]3(C)N=C(N)O[C@H]4C[C@H]43)c2)cn1 [Example 336, N-(5-((1(R,S),5(S,R),6(R,S))-3-amino-5-methyl-2-oxa-4-azabicyclo[4.1.0]hept-3-en-5-yl)-6-fluoropyridin-3-yl)-5-methoxypyrazine-2-carboxamide] | 0.435 µM | 0.0416 µM | > 400 µM |
| C[C@@]1(c2nc(NC(=O)c3ccc(Cl)cn3)ccc2F)N=C(N)O[C@H]2C[C@H]21 [Example 327, N-(6-((1S,5R,6S)-3-amino-5-methyl-2-oxa-4-azabicyclo[4.1.0]hept-3-en-5-yl)-5-fluoropyridin-2-yl)-5-chloropicolinamide] | 2.14 µM | 0.703 µM | 1320 µM |
| N#Cc1ccc(C(=O)Nc2ccc(Cl)c([C@@]3(CF)N=C(N)O[C@@H]4C[C@@H]43)c2)nc1 [Example 277, N-(3-((1R,5S,6R)-3-amino-5-(fluoromethyl)-2-oxa-4-azabicyclo[4.1.0]hept-3-en-5-yl)-4-chlorophenyl)-5-cyanopicolinamide] | 0.0568 µM | 0.0192 µM | 1560 µM |
| NC1=N[C@@](c2cc(-c3nnc(-c4ccc(F)cc4)[nH]3)ccc2F)(C(F)F)[C@H]2C[C@H]2O1 [Example 440, (1R,5S,6R)-5-(difluoromethyl)-5-(2-fluoro-5-(5-(4-fluorophenyl)-4H-1,2,4-triazol-3-yl)phenyl)-2-oxa-4-azabicyclo[4.1.0]hept-3-en-3-amine] | > 40 µM | > 15.6 µM | 250 µM |
